From patent publication US11787775B2, “Therapeutic compounds and methods of use” (priority 2020, dated 2023)

Columns and labels:
Type in all cases: binding
TEAD2 = TEAD2 (Homo sapiens (Human), UniProt Q15562); assay: TEAD lipid pocket TR-FRET (Lipid HTRF) probe competition assay; conditions: 30 mins incubation with compound; read-out: Lipid HTRF TEAD2 IC50
Procedure: (§1) His-tagged TEAD proteins are pre-incubated with TEAD project compounds for 30 minutes or 4 hours at room temperature. Biotinylated lipid pocket probes are then added to the TEAD/Compound mixture and incubated for 60 minutes at room temperature. The lipid pocket probe competes with the test compound for the TEAD lipid pocket until equilibrium is reached. After 60 minutes, Europium labelled anti-His (Perkin Elmer #ADO 110) and XL665 labelled streptavidin (CIS Bio 610SAXAC) are added to the TEAD/test compound/lipid pocket mixture and incubated for 30 minutes or 4 hours. […] If a TEAD lipid pocket binder such as binds and displaces the lipid pocket probe, the disruption of the TEAD:probe interaction results in a decrease in TR-FRET signal. The potency of compounds as TEAD lipid pocket binders is determined by IC50 value generated using a non-linear 4 parameter curve fit.
(§2) Note that the “Compound Number” in Table 2 and Table 3 corresponds to the “Compound Number” in Table 1.

TEAD4 = TEAD4 (Homo sapiens (Human), UniProt Q15561); assay: as above; conditions: 30 mins incubation with compound; read-out: Lipid HTRF TEAD4 IC50
Procedure: as §1, §2

TEAD1 = TEAD1 (Homo sapiens (Human), UniProt P28347); assay: as above; conditions: 30 mins incubation with compound; read-out: Lipid HTRF TEAD1 IC50
Procedure: as §1, §2

TEAD3 = TEAD3 (Homo sapiens (Human), UniProt Q99594); assay: as above; conditions: 30 mins incubation with compound
Procedure: as §1, §2

TEAD3 YAP50-100 = TEAD3 YAP50-100 (Homo sapiens (Human), UniProt Q99594); assay: TEAD-YAP protein-protein interaction HTRF assay; conditions: TEAD3 YAP50-100 HTRF combined EC50, 30 mins incubation with compound
Procedure: (§3) Purified His-tagged TEAD protein (YAP Binding Domain, amino acids 217-447) is pre-incubated with Europium labelled anti-His antibody tracer (Perkin Elmer Cat #AD0110). Small molecule Inhibitors are then incubated with the TEAD-Eu protein complex for 30 minutes or 4 hours to allow for binding to TEAD protein. Biotinylated YAP peptide for TEAD-YAP assays (AA's 50-100) or biotinylated TAZ peptide for TEAD-TAZ assays (AA's 13-57) that has been pre-incubated with streptavidin −xl665 acceptor (CIS-Bio Cat #610SAXAC) or is added to the compound-TEAD mix. The TEAD-YAP-inhibitor mixture is then incubated for 60 minutes at room temperature. All reactions are carried out in a polystyrene plate. After 60 minutes, the plate is read on a plate reader using TR-FRET mode with wavelengths of 665 nm/615 nm. If YAP or TAZ binds to TEAD as expected, a TR-FRET signal results from the proximity of YAP or TAZ and TEAD after binding. If an inhibitor such as peptide 17 (Selleckchem Cat #S8164) interferes with YAP-TEAD or TAZ-TEAD binding, the disruption of the YAP or TAZ:TEAD interaction results in a decrease in TR-FRET signal. The potency of compounds as YAP:TEAD or TAZ:TEAD protein-protein interaction (PPi) inhibitors is determined by an IC50 or EC50 value generated using a non-linear four parameter curve fit. The extent to which representative examples of the disclosed compounds are able to inhibit interaction between TEAD1, TEAD2, TEAD3 or TEAD4 and YAP truncated from amino acids 50-100 or TAZ truncated from amino acids 13-57 as measured by Homogeneous Time Resolved Fluorescence (HTRF) to generate EC50 and IC50 data.
(§4) Note that the “Compound Number” in Table 4 corresponds to the “Compound Number” in Table 1. […]

TEAD4 YAP50-100 = TEAD4 YAP50-100 (Homo sapiens (Human), UniProt Q15561); assay: TEAD-YAP protein-protein interaction HTRF assay; conditions: TEAD4 YAP50-100 HTRF combined EC50, 30 mins incubation with compound
Procedure: as §3, §4

TEAD2 YAP50-100 = TEAD2 YAP50-100 (Homo sapiens (Human), UniProt Q15562); assay: TEAD-YAP protein-protein interaction HTRF assay; conditions: TEAD2 YAP50-100 HTRF combined EC50, 30 mins incubation with compound
Procedure: as §3, §4

TEAD1 YAP50-100 = TEAD1 YAP50-100 (Homo sapiens (Human), UniProt P28347); assay: TEAD-YAP protein-protein interaction HTRF assay; conditions: TEAD1 YAP50-100 HTRF combined EC50, 30 mins incubation with compound
Procedure: as §3, §4

Chain of TEAD1 YAP50-100 (P28347 209-426): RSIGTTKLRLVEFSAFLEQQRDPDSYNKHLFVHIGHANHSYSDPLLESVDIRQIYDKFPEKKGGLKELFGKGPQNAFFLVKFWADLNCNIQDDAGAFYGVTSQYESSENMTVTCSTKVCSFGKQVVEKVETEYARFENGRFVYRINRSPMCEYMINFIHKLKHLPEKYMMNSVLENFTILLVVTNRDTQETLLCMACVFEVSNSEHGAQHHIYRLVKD
Chain of TEAD3 (Q99594 whole entry, species assumed): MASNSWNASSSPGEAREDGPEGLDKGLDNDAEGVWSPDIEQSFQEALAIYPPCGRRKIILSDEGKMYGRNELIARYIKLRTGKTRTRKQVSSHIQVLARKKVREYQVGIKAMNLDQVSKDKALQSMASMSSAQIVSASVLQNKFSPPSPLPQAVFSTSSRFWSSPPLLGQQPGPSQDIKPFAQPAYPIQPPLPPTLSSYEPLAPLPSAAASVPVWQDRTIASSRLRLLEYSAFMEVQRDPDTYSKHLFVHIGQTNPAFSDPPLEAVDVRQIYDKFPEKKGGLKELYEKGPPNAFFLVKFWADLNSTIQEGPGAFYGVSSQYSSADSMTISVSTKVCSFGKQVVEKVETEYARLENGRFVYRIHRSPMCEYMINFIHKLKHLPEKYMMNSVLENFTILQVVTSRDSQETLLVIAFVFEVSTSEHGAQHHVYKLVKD
Chain of TEAD3 YAP50-100 (Q99594 218-435): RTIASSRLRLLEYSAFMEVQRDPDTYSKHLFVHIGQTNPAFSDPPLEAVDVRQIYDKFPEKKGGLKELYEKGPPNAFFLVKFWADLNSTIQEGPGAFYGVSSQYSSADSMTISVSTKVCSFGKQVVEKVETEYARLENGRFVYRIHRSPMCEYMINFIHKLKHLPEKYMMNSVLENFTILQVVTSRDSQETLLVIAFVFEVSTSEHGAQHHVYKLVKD
Chain of TEAD4 (Q15561 whole entry, species assumed): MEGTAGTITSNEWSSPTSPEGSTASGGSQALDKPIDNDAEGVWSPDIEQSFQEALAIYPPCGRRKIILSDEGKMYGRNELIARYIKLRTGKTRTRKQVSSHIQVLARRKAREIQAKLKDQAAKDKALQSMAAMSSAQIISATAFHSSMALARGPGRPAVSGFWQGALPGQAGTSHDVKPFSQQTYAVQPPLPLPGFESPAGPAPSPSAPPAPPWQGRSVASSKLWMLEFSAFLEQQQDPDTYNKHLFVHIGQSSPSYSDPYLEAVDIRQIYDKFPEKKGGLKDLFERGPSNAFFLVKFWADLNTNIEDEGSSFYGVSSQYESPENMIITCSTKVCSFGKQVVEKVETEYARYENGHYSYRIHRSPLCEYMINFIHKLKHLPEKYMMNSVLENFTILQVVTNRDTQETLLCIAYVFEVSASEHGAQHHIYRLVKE
Chain of TEAD2 YAP50-100 (Q15562 217-447): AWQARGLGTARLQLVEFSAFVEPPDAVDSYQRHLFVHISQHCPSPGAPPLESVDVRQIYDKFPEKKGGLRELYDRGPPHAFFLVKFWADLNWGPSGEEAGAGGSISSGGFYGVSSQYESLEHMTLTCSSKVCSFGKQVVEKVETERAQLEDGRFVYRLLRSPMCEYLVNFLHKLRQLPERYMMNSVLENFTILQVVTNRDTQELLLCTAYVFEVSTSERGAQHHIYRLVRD
Chain of TEAD2 (Q15562 whole entry): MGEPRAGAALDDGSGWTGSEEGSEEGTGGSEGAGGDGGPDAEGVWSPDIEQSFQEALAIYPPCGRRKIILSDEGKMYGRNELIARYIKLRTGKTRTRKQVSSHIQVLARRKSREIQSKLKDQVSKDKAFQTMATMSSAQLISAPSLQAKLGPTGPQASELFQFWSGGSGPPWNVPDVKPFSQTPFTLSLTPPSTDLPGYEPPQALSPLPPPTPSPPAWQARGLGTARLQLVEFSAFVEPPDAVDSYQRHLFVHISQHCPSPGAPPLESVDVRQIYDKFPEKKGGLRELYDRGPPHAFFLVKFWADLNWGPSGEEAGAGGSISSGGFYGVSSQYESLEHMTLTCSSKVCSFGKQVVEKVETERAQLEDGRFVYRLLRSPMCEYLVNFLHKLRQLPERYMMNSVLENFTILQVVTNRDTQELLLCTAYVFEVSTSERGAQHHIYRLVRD
Chain of TEAD1 (P28347 whole entry, species assumed): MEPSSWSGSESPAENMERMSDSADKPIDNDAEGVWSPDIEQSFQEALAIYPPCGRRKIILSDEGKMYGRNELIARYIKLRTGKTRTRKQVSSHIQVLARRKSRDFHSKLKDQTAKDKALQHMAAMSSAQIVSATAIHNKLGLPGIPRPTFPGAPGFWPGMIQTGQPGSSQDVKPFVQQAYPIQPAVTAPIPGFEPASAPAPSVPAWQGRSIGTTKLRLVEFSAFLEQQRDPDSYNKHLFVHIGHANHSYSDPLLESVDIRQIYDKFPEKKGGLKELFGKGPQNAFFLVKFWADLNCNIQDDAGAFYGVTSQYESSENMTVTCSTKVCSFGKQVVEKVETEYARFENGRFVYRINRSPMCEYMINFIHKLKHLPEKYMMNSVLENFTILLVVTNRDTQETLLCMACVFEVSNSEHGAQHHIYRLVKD
Chain of TEAD4 YAP50-100 (Q15561 217-434): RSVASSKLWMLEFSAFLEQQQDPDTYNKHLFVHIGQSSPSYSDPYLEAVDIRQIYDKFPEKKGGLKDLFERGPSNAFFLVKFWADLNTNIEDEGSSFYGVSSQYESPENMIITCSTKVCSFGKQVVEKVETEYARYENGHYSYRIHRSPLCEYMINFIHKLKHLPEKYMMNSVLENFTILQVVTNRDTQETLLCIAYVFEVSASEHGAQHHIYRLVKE

| Compound | IC50 (TEAD2) [µM] | IC50 (TEAD4) [µM] | IC50 (TEAD1) [µM] | IC50 (TEAD3) [µM] | EC50 (TEAD3 YAP50-100) [µM] | EC50 (TEAD4 YAP50-100) [µM] | EC50 (TEAD2 YAP50-100) [µM] | EC50 (TEAD1 YAP50-100) [µM] |
| --- | --- | --- | --- | --- | --- | --- | --- | --- |
| C=C(CNc1cc(-c2ccc(C(C)C(F)(F)F)cc2)c2c(c1C#N)CCO2)C(=O)O (single isomer, unassigned) [Enantiomer C from Example 16, 2-(((4-cyano-7-(4-(1,1,1-trifluoropropan-2-yl)phenyl)-2,3-dihydrobenzofuran-5-yl)amino)methyl)acrylic acid] | 0.04 | 0.01 | 0.02 | 3 | 5.9 | 0.01 | 0.02 | 0.01 |
| C=C(CNc1cc(-c2ccc(C(C)C(F)(F)F)cc2)c2c(c1C#N)CCO2)C(=O)O (single isomer, unassigned) [Enantiomer D from Example 16, 2-(((4-cyano-7-(4-(1,1,1-trifluoropropan-2-yl)phenyl)-2,3-dihydrobenzofuran-5-yl)amino)methyl)acrylic acid] | 0.16 | 0.03 | 0.08 | 6.1 | > 50 | 0.1 | 0.07 | 0.04 |
| C=C(CNc1cc2c(c(-c3ccc(C(C)C)cc3)c1)OCC2)C(=O)O [Compound 1, 2-[[[7-(4-isopropylphenyl)-2,3-dihydrobenzofuran-5-yl]amino]methyl]prop-2-enoic acid] | 0.22 | 0.04 | 0.22 | 8.4 | > 50 | 0.05 | 0.1 | 0.17 |
| C=C(CNc1cc2c(c(-c3ccc(C(C)C)cc3)c1)OCC2)C(N)=O [Compound 2, 2-[[[7-(4-isopropylphenyl)-2,3-dihydrobenzofuran-5-yl]amino]methyl]prop-2-enamide] | 0.08 | 0.03 | 0.59 | 18 | 18 | 0.09 | 0.07 | 0.46 |
| C=C(CNc1cc(-c2ccc(C(C)C)cc2)c2c(c1C#N)CCO2)C(=O)O [Compound 3, 2-[[[4-cyano-7-(4-isopropylphenyl)-2,3-dihydrobenzofuran-5-yl]amino]methyl]prop-2-enoic acid] | 0.06 | 0.02 | 0.02 | 2.88 | 6.22 | 0.03 | 0.03 | 0.02 |
| C=C(CNc1cc(-c2ccc(C(C)C)cc2)c2c(c1C#N)CCO2)C(N)=O [Compound 4, 2-[[[4-cyano-7-(4-isopropylphenyl)-2,3-dihydrobenzofuran-5-yl]amino]methyl]prop-2-enamide] | 0.1 | 0.08 | 0.32 | 10 | 13 | 0.16 | 0.05 | 0.23 |
| C=C(CNc1cc(-c2ccc(C(C)C)cc2)c2c(c1C#N)CCO2)C(=O)NC [Compound 5, 2-[[[4-cyano-7-(4-isopropylphenyl)-2,3-dihydrobenzofuran-5-yl]amino]methyl]-N-methyl-prop-2-enamide] | 2 | 1.3 | 1.6 | > 50 | > 50 | > 50 | > 50 | > 50 |
| C=C(CNc1cc(-c2ccc(C(C)C)cc2)c2c(c1C#N)CCO2)C(=O)N(C)C [Compound 6, 2-[[[4-cyano-7-(4-isopropylphenyl)-2,3-dihydrobenzofuran-5-yl]amino]methyl]-N,N-dimethyl-prop-2-enamide] | 3.5 | 0.5 | 1.1 | > 50 | > 50 | 1 | 2.8 | 0.97 |
| C=C(CN(C)c1cc(-c2ccc(C(C)C)cc2)c2c(c1C#N)CCO2)C(=O)O [Compound 7, 2-[[[4-cyano-7-(4-isopropylphenyl)-2,3-dihydrobenzofuran-5-yl]-methyl-amino]methyl]prop-2-enoic acid] | 0.23 | 0.16 | 0.54 | 14 | > 50 | 0.43 | 0.18 | 0.51 |
| C=C(CNc1cc(-c2ccc(C(C)C)cc2)c2c(c1C#N)CCO2)C(=O)OC [Compound 8, methyl 2-[[[4-cyano-7-(4-isopropylphenyl)-2,3-dihydrobenzofuran-5-yl]amino]methyl]prop-2-enoate] | 0.04 | 0.02 | 0.07 | 0.24 | > 50 | > 50 | > 50 | > 50 |
| C=C(CNc1cc(-c2ccc(C(C)C)cc2)c2c(c1C#N)CCO2)C(=O)NO [Compound 9, 2-[[[4-cyano-7-(4-isopropylphenyl)-2,3-dihydrobenzofuran-5-yl]amino]methyl]prop-2-enehydroxamic acid] | 0.11 | 0.12 | 0.28 | 2.4 | 2.2 | 0.28 | 0.05 | 0.19 |
| C=C(CNc1cc(-c2ccc(C(C)C)cc2)c2c(c1C#N)CCO2)B(O)O [Compound 10, 1-[[[4-cyano-7-(4-isopropylphenyl)-2,3-dihydrobenzofuran-5-yl]amino]methyl]vinylboronic acid] | 2.7 | 1.3 | 6.3 | > 50 | > 50 | 2.1 | 2.1 | 5.7 |
| C=C(CNc1cc(-c2ccc(C(C)C)cc2)c2c(c1C#N)CCO2)C(C)=O [Compound 11, 7-(4-isopropylphenyl)-5-[(2-methylene-3-oxo-butyl)amino]-2,3-dihydrobenzofuran-4-carbonitrile] | 0.08 | 0.04 | 0.18 | 0.13 | 0.2 | 0.08 | 0.13 | 0.32 |
| C=C(CNc1cc(-c2ccc(C(C)C)cc2)c2c(c1CO)CCO2)C(=O)O [Compound 12, 2-[[[4-(hydroxymethyl)-7-(4-isopropylphenyl)-2,3-dihydrobenzofuran-5-yl]amino]methyl]prop-2-enoic acid] | 0.93 | 0.47 | 1.5 | 47 | > 50 | 0.75 | 0.3 | 0.78 |
| C=C(CNc1cc(-c2ccc(C(C)C)cc2)c2c(c1CO)CCO2)C(N)=O [Compound 13, 2-[[[4-(hydroxymethyl)-7-(4-isopropylphenyl)-2,3-dihydrobenzofuran-5-yl]amino]methyl]prop-2-enamide] | 0.22 | 0.18 | 0.78 | 11 | 22 | 0.18 | 0.04 | 0.33 |
| C=C(CNc1cc(-c2ccc(C(C)C)cc2)c2c(c1CO)CCO2)C(=O)NO [Compound 14, 2-[[[4-(hydroxymethyl)-7-(4-isopropylphenyl)-2,3-dihydrobenzofuran-5-yl]amino]methyl]prop-2-enehydroxamic acid] | 0.12 | 0.42 | 0.52 | 2.4 | 3.4 | 0.89 | 0.07 | 0.28 |
